The values below are quoted from earlier work in US12527751B2, “Oral thin film with high active agent loading” (LTS LOHMANN THERAPIE-SYSTEME AG, priority 2017, dated 2026).

For the series the following is noted: compared with (R) ketamine.

In the case of `CNC1(c2ccccc2Cl)CCCCC1=O` (racemic) [(S) ketamine, (S)-(±)-2-(2-chlorophenyl)-2-(methylamino)cyclohexan-1-one], the “Analgesic and anaesthetic potency relative to the (R) form” value is “approximately three times higher”.
